Consider two compounds from PMC10611828 (European Journal of Nuclear Medicine and Molecular Imaging, 2023).

On the set-up of data set [1]: method as in PMID 35027371, PMID 28644732. Particulars: compared with RM2; cited from earlier work.
Data set [2] is described as follows: Stability in mouse serum at 37 °C (radio-HPLC). It counts as in vitro ADME. As to conditions: 0 h. The protocol: (§1) The ^177Lu-labeled peptides were incubated in 300-μL phosphate buffered saline (PBS; Gibco, ThermoFisher, The Netherlands) at 37 °C, and their stability was verified after 1, 4, 24, 48, and 72 h by radio-HPLC (Supplementary Fig. 2). The stability in serum was determined by incubating the radiolabeled compounds into 300 μL of mouse serum (Invitrogen, USA) or human serum (Sigma Aldrich, USA) at 37 °C (Supplementary Fig. 3, 4). At each time point post-incubation, 35 μL of the mixture was added to an Eppendorf tube, and the proteins were precipitated by adding an equal volume of acetonitrile. The tubes were centrifuged at 16,000 rpm, 4 °C for 20 min, and the stability was monitored by radio-HPLC, expressed as the RCP at the different time points.

A short description of data set [3]: Stability in human serum at 37 °C (radio-HPLC). The format is in vitro ADME. As to conditions: 0 h. On the procedure:
as §1

On the set-up of data set [4]: method as in PMID 31482426. As to conditions: all patients; cited from earlier work.
In data set [5] the test system is PC-3 cells. The data set can be described thus: Uptake and specificity in PC-3 cells. The format is cell-based, human. As to conditions: 1 h 37 °C. On the procedure: PC-3 cells were seeded at 2.5 × 10^5 cells/well into 12 well plates 18–24 h prior to the experiment. […] Hereafter, cells were washed twice with PBS and subsequently lysed with 0.1 M NaOH for 20 min at room temperature (RT). The cell lysates were collected and measured using a gamma counter (1480 WIZARD automatic γ-counter, PerkinElmer, The Netherlands). […] Hereafter, cells were washed twice with cold PBS and lysed with 0.1 M NaOH for 20 min at RT. The cell lysates were collected and measured to determine the amount of radioactivity in a gamma counter. To correct for cell density, cells from two separate wells were counted (Countess counter, Invitrogen, The Netherlands), and data was expressed as percentage of added dose (AD) per 2.5 × 10^5 cells.

Data set [6] is described as follows: Stability in PBS at 37 °C (radio-HPLC). The format is physicochemical. The protocol: as §1

For the compound `CC(C)CC(CC(C)C)NC(=O)[C@H](Cc1cnc[nH]1)NC(=O)CNC(=O)[C@@H](NC(=O)[C@H](C)NC(=O)[C@H](Cc1c[nH]c2ccccc12)NC(=O)[C@H](CCC(N)=O)NC(=O)[C@@H](Cc1ccccc1)NC(=O)COCC(=O)Nc1ccc(CNC(=O)CN2CCN(CC(=O)O)CCN(CC(=O)O)CCN(CC(=O)O)CC2)cc1)C(C)C` [NeoB, DOTA-pADA-D-Phe-Gln-Trp-Ala-Val-Gly-His-NH-CH[CH2-CH(CH3)2]2], the “lipophilicity (structure and LogD)” value in data set [1] was “more lipophilic”.
With `CC(C)C[C@H](NC(=O)C[C@H](O)[C@H](CC(C)C)NC(=O)[C@H](Cc1c[nH]cn1)NC(=O)CNC(=O)[C@@H](NC(=O)[C@H](C)NC(=O)[C@H](Cc1c[nH]c2ccccc12)NC(=O)[C@H](CCC(N)=O)NC(=O)[C@@H](Cc1ccccc1)NC(=O)CN1CCC(NC(=O)CN2CCN(CC(=O)O)CCN(CC(=O)O)CCN(CC(=O)O)CC2)CC1)C(C)C)C(N)=O` [[^177Lu]Lu-RM2] [metal not drawn], the “intact radiolabeled ligand (RCP)” value in data set [2] amounted to 97.4 ± 0.3%; in data set [3], 97.4 ± 0.3%; in data set [6] (0 h), 97.4 ± 0.3%; in data set [6] (1 h), 97.8 ± 0.4%; in data set [6] (4 h), 96.7 ± 0.5%; in data set [6] (24 h) it was 95.6 ± 0.3%. Further, the results for the “intact radiolabeled ligand (RCP)” value in data set [6] (48 h) and in data set [6] (72 h) were 87.6 ± 0.6% and 80.4 ± 0.8%, respectively. The tolerability in patients result in data set [4] is “well tolerated”. Also, the “uptake in the presence of Tyr^4-BBN” value in data set [5] (10^-9 M + 10^-6 M Tyr^4-BBN) was below 1 % AD. This compound returned an uptake in data set [5] (10^-9 M, per 2.5 × 10^5 cells) of 10.96 ± 3.46 % AD.
